Several values for one entry are separate records, joined by “and”; a condition that tells them apart may be missing. Identical values can stand only once. Inconclusive results and toxic doses are left out. Non-standard residues stand in square brackets, D forms with d. Residues, ends and D or L forms follow the SMILES beside them. ξ: configuration not given here. ξPhe(4-N(CH2CH2Cl)2) = NC(Cc1ccc(N(CCCl)CCCl)cc1)C(=O)O

The test deals with BDF1 mice, P388 leukemia ip, median survival T/C. Kind of test: NCI In Vivo Anticancer Drug Screen. Data for tumor model P388 Leukemia (intraperitoneal) in B6D2F1 (BDF1) mice. The note with it: endpoint: median survival time, higher = longer survival. In outline:
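T/C = treated-group survival ÷ vehicle-control survival; tumour transplanted into mice before dosing.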

Where [1] appears, read: dose: 12.5 mg/kg/injection, schedule: Q01DX009 (ip), vehicle: Klucel (hydroxypropylcellulose) (HPC).
Setting [2] is: dose: 25.0 mg/kg/injection, schedule: Q01DX009 (ip), vehicle: Klucel (hydroxypropylcellulose) (HPC).
The mark [3] stands for this setting: dose: 50.0 mg/kg/injection, schedule: Q01DX009 (ip), vehicle: Klucel (hydroxypropylcellulose) (HPC).
Setting [4] is: dose: 50.0 mg/kg/injection, schedule: Q01DX009 (ip), vehicle: saline with Tween-80.
The mark [5] stands for this setting: dose: 100.0 mg/kg/injection, schedule: Q01DX009 (ip), vehicle: saline with Tween-80.
Where [6] appears, read: dose: 200.0 mg/kg/injection, schedule: Q01DX009 (ip), vehicle: saline with Tween-80.
Setting [7] is: dose: 100.0 mg/kg/injection, schedule: Q04DX003 (ip), vehicle: saline with Tween-80.
Setting [8] is: dose: 200.0 mg/kg/injection, schedule: Q04DX003 (ip), vehicle: saline with Tween-80.
The mark [9] stands for this setting: dose: 100.0 mg/kg/injection, schedule: Q01DX009 (ip), vehicle: Klucel (hydroxypropylcellulose) (HPC).
The mark [10] stands for this setting: dose: 100.0 mg/kg/injection, schedule: Q04DX003 (ip), vehicle: Klucel (hydroxypropylcellulose) (HPC).
The mark [11] stands for this setting: dose: 200.0 mg/kg/injection, schedule: Q01DX001 (ip), vehicle: Klucel (hydroxypropylcellulose) (HPC).
The mark [12] stands for this setting: dose: 200.0 mg/kg/injection, schedule: Q01DX009 (ip), vehicle: Klucel (hydroxypropylcellulose) (HPC).
Where [13] appears, read: dose: 200.0 mg/kg/injection, schedule: Q04DX003 (ip), vehicle: Klucel (hydroxypropylcellulose) (HPC).
Setting [14] is: dose: 400.0 mg/kg/injection, schedule: Q04DX003 (ip), vehicle: Klucel (hydroxypropylcellulose) (HPC).
The mark [15] stands for this setting: dose: 100.0 mg/kg/injection, schedule: Q01DX001 (ip), vehicle: saline with Tween-80.
[16] abbreviates: dose: 200.0 mg/kg/injection, schedule: Q01DX001 (ip), vehicle: saline with Tween-80.
Setting [17] is: dose: 400.0 mg/kg/injection, schedule: Q01DX001 (ip), vehicle: saline with Tween-80.
Where [18] appears, read: dose: 400.0 mg/kg/injection, schedule: Q01DX009 (ip), vehicle: Klucel (hydroxypropylcellulose) (HPC).
[19] abbreviates: dose: 400.0 mg/kg/injection, schedule: Q04DX003 (ip), vehicle: saline with Tween-80.
Setting [20] is: dose: 50.0 mg/kg/injection, schedule: Q01DX009 (ip), vehicle: saline.
[21] abbreviates: dose: 100.0 mg/kg/injection, schedule: Q04DX003 (ip), vehicle: saline.
Setting [22] is: dose: 200.0 mg/kg/injection, schedule: Q04DX003 (ip), vehicle: saline.

`C[n+]1c2ccccc2nc2c(N)cc(N)cc21`: the T/C was 115 % of control (dose: 4.8 mg/kg/injection, schedule: Q01DX009 (ip), vehicle: saline with Tween-80); 115 % of control (dose: 7.3 mg/kg/injection, schedule: Q01DX009 (ip), vehicle: saline with Tween-80); 154 % of control (dose: 26.0 mg/kg/injection, schedule: Q01DX009 (ip), vehicle: saline with Tween-80); 154 % of control (dose: 41.0 mg/kg/injection, schedule: Q01DX009 (ip), vehicle: saline with Tween-80); 185 % of control (dose: 41.0 mg/kg/injection, schedule: Q01DX009 (ip), vehicle: water).
In the case of `COc1cc(OC)c2c[n+](C)c3c4cc(OC)c(OC)cc4ccc3c2c1`, the T/C is, setting by setting: (dose: 6.25 mg/kg/injection, schedule: Q01DX009 (ip), vehicle: Klucel (hydroxypropylcellulose) (HPC)) 154 % of control; under setting [1], 154 % of control and 169 % of control; under setting [2], 170 % of control and 172 % of control; under setting [3], 155 % of control and 180 % of control.
On to `O=C(NC1CCCCC1)N(C(=O)C(F)(F)F)C1CCCCC1`, for which the T/C runs as follows: under setting [4], 97 % of control; under setting [5], 93 % of control; under setting [6], 93 % of control.
Turning to `O=C(NC(=O)c1c(F)cccc1F)Nc1ccc(Cl)c(Cl)c1`, the T/C (dose: 25.0 mg/kg/injection, schedule: Q01DX009 (ip), vehicle: saline with Tween-80) is 96 % of control; the T/C under setting [4] is 97 % of control; the T/C under setting [5] was 100 % of control.
`CCOC(=O)C(Cc1ccc(N(CCCl)CCCl)cc1)NC(=O)C(Cc1ccccc1)NC(=O)C(NC(=O)CNC(=O)C1CCCN1)C(C)C` (configuration not stated) (H-PGVF[ξPhe(4-N(CH2CH2Cl)2)]-OEt; configuration not given here): the T/C (dose: 5.0 mg/kg/injection, schedule: Q04DX003 (ip), vehicle: water) is 95 % of control; the T/C (dose: 10.0 mg/kg/injection, schedule: Q04DX003 (ip), vehicle: water) is 100 % of control; the T/C (dose: 20.0 mg/kg/injection, schedule: Q04DX003 (ip), vehicle: water) was 176 % of control; the T/C (dose: 40.0 mg/kg/injection, schedule: Q04DX003 (ip), vehicle: water) was 241 % of control; the T/C (dose: 80.0 mg/kg/injection, schedule: Q04DX003 (ip), vehicle: water) was 265 % of control.
With `CCCNC(C)(C)C(SS)c1ccc(Cl)cc1` (configuration not stated), the T/C is, setting by setting: (dose: 50.0 mg/kg/injection, schedule: Q04DX003 (ip), vehicle: saline with Tween-80) 109 % of control; under setting [7], 104 % of control; under setting [8], 109 % of control.
With `COc1cc(OC)c(/C=C/c2ccncn2)c(OC)c1`, the T/C was 101 % of control under setting [4], 108 % of control under setting [5] and 117 % of control under setting [6].
Turning to `CN(C)c1ccc(C(O)(Cc2cccc(C#N)c2)c2ccc(N(C)C)cc2)cc1`, the T/C (dose: 100.0 mg/kg/injection, schedule: Q04DX002 (ip), vehicle: saline with Tween-80) was 95 % of control; the T/C (dose: 200.0 mg/kg/injection, schedule: Q04DX002 (ip), vehicle: saline with Tween-80) is 89 % of control; the T/C (dose: 400.0 mg/kg/injection, schedule: Q04DX002 (ip), vehicle: saline with Tween-80) was 98 % of control.
With `CCOC(=O)Nc1ccc2c(c1)/C(=N\NC(N)=S)c1ccccc1-2`, the T/C is, setting by setting: (dose: 0.37 mg/kg/injection, schedule: Q01DX009 (ip), vehicle: gum acacia) 120 % of control; (dose: 0.75 mg/kg/injection, schedule: Q01DX009 (ip), vehicle: gum acacia) 108 % of control; (dose: 1.5 mg/kg/injection, schedule: Q01DX009 (ip), vehicle: gum acacia) 96 % of control and 108 % of control; (dose: 3.0 mg/kg/injection, schedule: Q04DX003 (ip), vehicle: gum acacia) 92 % of control; (dose: 6.0 mg/kg/injection, schedule: Q04DX003 (ip), vehicle: gum acacia) 100 % of control; under setting [3], 86 % of control. The T/C is 90 % of control under setting [9]; 86 % of control under setting [10]; 86 % of control under setting [11]; 100 % of control under setting [12]; 100 % of control under setting [13]; 109 % of control under setting [14]. In addition, under “dose: 400.0 mg/kg/injection, schedule: Q04DX003 (ip), vehicle: gum acacia”, the T/C was 100 % of control.
With `S=C(Nc1cc2c3c(c1)CCCN3CCC2)Nc1cc2c3c(c1)CCCN3CCC2`, the T/C runs as follows: under setting [15], 109 % of control; under setting [16], 100 % of control; under setting [17], 95 % of control.
In the case of `CCCOn1nnc2cc(Cl)ccc21`, the T/C under setting [5] was 100 % of control and the T/C under setting [6] was 92 % of control.
Consider `CC(CC(C)(C)C)C(=O)CCC(C)(C)C` (configuration not stated), for which the T/C was 104 % of control under setting [15], 100 % of control under setting [16] and 109 % of control under setting [17].
As for `ClC1(c2ccccc2)c2ccc(Br)cc2-c2cc(Br)ccc21`, the T/C is, setting by setting: (dose: 66.0 mg/kg/injection, schedule: Q01DX009 (ip), vehicle: saline with Tween-80) 100 % of control; under setting [5], 121 % of control; under setting [12], 88 % of control.
With `Cn1c(-c2ccccc2)nc2ccccc2c1=O`, the T/C runs as follows: under setting [4], 90 % of control; under setting [5], 97 % of control; under setting [6], 101 % of control.
Regarding `CCC/C(=C\C(=O)O)CC`, the T/C is 109 % of control under setting [9], 100 % of control under setting [12] and 104 % of control under setting [18].
As for `Cc1nnc2n1N=C(c1ccc(-c3ccccc3)cc1)CS2`, the T/C under setting [7] is 104 % of control, the T/C under setting [8] was 92 % of control and the T/C under setting [19] is 93 % of control.
Turning to `OCCC1=CCC1`, the T/C under setting [4] is 101 % of control, the T/C under setting [5] is 101 % of control and the T/C under setting [6] was 111 % of control.
Consider `c1ccc2c(c1)CC1CCCCN1C2` (configuration not stated), for which the T/C is, setting by setting: under setting [1], 100 % of control; (dose: 12.5 mg/kg/injection, schedule: Q01DX009 (ip), vehicle: saline) 100 % of control; under setting [2], 105 % of control; (dose: 25.0 mg/kg/injection, schedule: Q01DX009 (ip), vehicle: saline) 90 % of control; (dose: 37.5 mg/kg/injection, schedule: Q04DX003 (ip), vehicle: saline) 95 % of control; under setting [3], 100 % of control. In addition, the T/C is 110 % of control under setting [20] and 86 % of control (dose: 75.0 mg/kg/injection, schedule: Q04DX003 (ip), vehicle: saline).
Take `CCCO/C(N)=N/OS(=O)(=O)c1ccccc1`: the T/C under setting [7] is 97 % of control, the T/C under setting [8] was 99 % of control and the T/C under setting [19] was 96 % of control.
`C=CC(C)(C)c1cc2cc3c(cc2oc1=O)OC(C(C)(C)OC(C)=O)C3` (configuration not stated): the T/C under setting [21] is 107 % of control and the T/C under setting [22] is 104 % of control.
As for `Cc1ccccc1C1c2ccccc2C(=O)c2cccc(C)c21` (configuration not stated), the T/C (dose: 100.0 mg/kg/injection, schedule: Q01DX001 (ip), vehicle: Klucel (hydroxypropylcellulose) (HPC)) was 104 % of control; the T/C under setting [9] is 105 % of control; the T/C under setting [10] is 100 % of control; the T/C under setting [11] is 109 % of control; the T/C under setting [12] was 100 % of control; the T/C under setting [13] is 95 % of control. Besides, the T/C is 100 % of control (dose: 400.0 mg/kg/injection, schedule: Q01DX001 (ip), vehicle: Klucel (hydroxypropylcellulose) (HPC)); 100 % of control under setting [18]; 108 % of control under setting [14].
With `C#CC(C)OCC1CO1` (configuration not stated), the T/C was 91 % of control under setting [20]; 108 % of control (dose: 50.0 mg/kg/injection, schedule: Q04DX003 (ip), vehicle: saline); 95 % of control (dose: 100.0 mg/kg/injection, schedule: Q01DX009 (ip), vehicle: saline); 91 % of control under setting [21]; 108 % of control under setting [22].

For the origin of these results see PubChem BioAssay AID328 (DTP/NCI, 2004).
